Measured values: ChEMBL document CHEMBL5360560, “Anti-Vibrio potential of natural products from marine microorganisms” (Eur J Med Chem, 2023)
Converted amounts (≈) assume the structure as drawn.

Columns and labels:
Vibrio anguillarum [1] = experiment: Antimicrobial activity against Vibrio anguillarum assessed as zone of inhibition per disc at 100 ug measured after 24 hrs by disc diffusion assay; type: functional; conditions: read-out: IZ
Vibrio parahaemolyticus [2] = experiment: Antimicrobial activity against Vibrio parahaemolyticus assessed as bacterial growth inhibition by broth dilution assay; type: functional
Vibrio parahaemolyticus [3] = experiment: Antimicrobial activity against Vibrio parahaemolyticus assessed as bacterial growth inhibition; type: functional
Vibrio harveyi [4] = experiment: Antibacterial activity against Vibrio harveyi assessed as bacterial growth inhibition; type: functional
Vibrio anguillarum [5] = experiment: Antibacterial activity against Vibrio anguillarum assessed as bacterial growth inhibition; type: functional
Vibrio harveyi [6] = experiment: Antimicrobial activity against Vibrio harveyi assessed as bacterial growth inhibition; type: functional
Vibrio harveyi [7] = experiment: Antimicrobial activity against Vibrio harveyi QDIO-7 assessed as bacterial growth inhibition by microplate reader assay; type: functional
Vibrio parahaemolyticus [8] = experiment: Antimicrobial activity against Vibrio parahaemolyticus ATCC 17802 assessed as bacterial growth inhibition by microplate reader assay; type: functional
Vibrio harveyi [9] = experiment: Antimicrobial activity against Vibrio harveyi BB120 assessed as bacterial growth inhibition by bioluminescence based Quorum-Sensing assay; type: functional, organism-based
Vibrio parahaemolyticus [10] = experiment: Antimicrobial activity against Vibrio parahaemolyticus assessed as zone of inhibition; type: functional
Vibrio alginolyticus [11] = experiment: Antimicrobial activity against Vibrio alginolyticus assessed as zone of inhibition; type: functional
Vibrio vulnificus [12] = experiment: Antimicrobial activity against Vibrio vulnificus assessed as bacterial growth inhibition; type: functional
Vibrio anguillarum [13] = experiment: Antimicrobial activity against Vibrio anguillarum QDIO-6 assessed as bacterial growth inhibition by microtiter plate assay; type: functional
Vibrio anguillarum [14] = experiment: Antimicrobial activity against Vibrio anguillarum assessed as bacterial growth inhibition by microplate reader assay; type: functional
Vibrio harveyi [15] = experiment: Antimicrobial activity against Vibrio harveyi assessed as bacterial growth inhibition by microplate reader assay; type: functional
Vibrio anguillarum [16] = experiment: Antimicrobial activity against Vibrio anguillarum assessed as bacterial growth inhibition by broth dilution assay; type: functional
Vibrio alginolyticus [17] = experiment: Antimicrobial activity against Vibrio alginolyticus assessed as bacterial growth inhibition by broth dilution assay; type: functional
Vibrio vulnificus [18] = experiment: Antimicrobial activity against Vibrio vulnificus MCCC E1758 assessed as bacterial growth inhibition by resazurin dye based assay; type: functional

Work on `O=C1N[C@@H](Cc2ccccc2)C(=O)N2CCC[C@@H]12` yielded a zone of inhibition at 100 µg/disc (Vibrio anguillarum [1]) of 25 mm.
In the case of `CO[C@@H]1CC(=O)/C=C/C[C@@H](C)OC(=O)C[C@H](O)C1`, the MIC (Vibrio parahaemolyticus [2]) is reported as 25 µM.
Work on `CC[C@@H](C)[C@@H](O)/C=C/C(C)=C/CC[C@@H](C)C[C@H](C)[C@H]1C[C@@H](O)[C@H](C)CC/C=C/[C@H](C)C/C=C(\C)[C@H](O)CCC[C@@H](O)[C@H](C)/C=C/C(=O)O1` yielded an MIC (Vibrio parahaemolyticus [3]) of 1.56 µg/mL.
`COc1ccc(O)c(-c2cc(OC)ccc2O)c1` gave an MIC (Vibrio parahaemolyticus [2]) of 10 µg/mL.
In the case of `C[C@@H]1Cc2ccc(O)c(O)c2C(=O)O1`, the MIC (Vibrio harveyi [4]) is reported as 32 µg/mL (≈ 165 µM) and the MIC (Vibrio anguillarum [5]) is reported as 0.5 µg/mL (≈ 2.57 µM).
`COc1ccc2c3c4n(c2c1)C(C=C(C)C)OOC(C)(C)C[C@@H]4N1C(=O)[C@@H]2CCCN2C(=O)[C@]1(O)[C@H]3O` (stereo not given in full) was tested, and the MIC (Vibrio harveyi [6]) was 16 µg/mL.
With `CC[C@H](C)C[C@H](C)/C=C(\C)c1cc(=O)cc(O)o1` the MIC (Vibrio parahaemolyticus [2]) was 6.25 µg/mL.
`O=C1N[C@@H]2c3nc4ccccc4c(=O)n3[C@H]1CC21C(=O)Nc2ccccc21` (stereo not given in full) gave an MIC (Vibrio harveyi [6]) of 16 µg/mL.
In the case of `CC[C@@H](C)[C@@H](O)/C=C/C=C/CC[C@@H](C)C[C@H](C)[C@H]1C[C@@H](O)[C@H](C)CC/C=C/[C@H](C)C/C=C(\C)[C@H](O)CCC[C@@H](OC)[C@H](C)/C=C/C(=O)O1`, the MIC (Vibrio parahaemolyticus [3]) is reported as 1.56 µg/mL.
`CO[C@@H]1CC(=O)C/C=C/[C@@H](O)CC(=O)O[C@H](C)C1` showed an MIC (Vibrio parahaemolyticus [2]) of 12.5 µM.
Molecule `C[C@@H]1C[C@H](O)CC(=O)C/C=C/[C@@H](O)CC(=O)O1` has an MIC (Vibrio parahaemolyticus [2]) of 25 µM.
`O=C1NCc2nc3ccccc3c(=O)n2C1Cc1c[nH]c2ccccc12` (stereo not given) showed an MIC (Vibrio harveyi [6]) of 16 µg/mL.
For `C=C(C)C1(O)OC(=O)C=C1OC` (stereo not given) [PENICILLIC ACID], the MIC (Vibrio harveyi [4]) was 32 µg/mL (≈ 188 µM) and the MIC (Vibrio anguillarum [5]) was 0.5 µg/mL (≈ 2.94 µM).
Molecule `O=C1CC[C@@H](c2ccc(O)c3c2C(=O)CCC3=O)c2cccc(O)c21` has an MIC (Vibrio harveyi [7]) of 4 µg/mL.
`O=C1c2cc(O)cc(O)c2C(=O)c2c1cc(O)c(C(CO)CCO)c2O` (stereo not given) showed an MIC (Vibrio parahaemolyticus [8]) of 12 µg/mL.
In the case of `Nc1ccccc1C(=O)C[C@H]1NC(=O)[C@H]2CCCN2C1=O`, the MIC (Vibrio harveyi [6]) is reported as 50 µM.
With `CCOC(=O)C[C@H](O)COC(=O)/C=C/CCl` the IC50 (Vibrio harveyi [9]) was 17.6 µM.
With `CC(C)C[C@@H]1NC(=O)[C@H]2C[C@H](O)CN2C1=O` the “inhibition zone (IZ)” value (Vibrio parahaemolyticus [10]) was 12 mm and the “inhibition zone (IZ)” value (Vibrio alginolyticus [11]) was 20 mm.
For `COc1cc(O)c2c(c1)C(=O)[C@@H]1C[C@](C)(O)[C@H](O)[C@H](O)[C@]1(O)C2=O`, the MIC (Vibrio parahaemolyticus [3]) was 50 µM.
In the case of `CC[C@@H](C)[C@H](/C=C/C(=C/CC[C@@H](C)C[C@H](C)[C@H]1C[C@@H](O)[C@H](C)CC/C=C/[C@H](C)C/C=C(\C)[C@H](O)CCC[C@@H](O)[C@H](C)/C=C/C(=O)O1)CO)OC(C)=O`, the MIC (Vibrio parahaemolyticus [3]) is reported as 1.56 µg/mL.
In the case of `COc1cc(O)c2c(=O)c(C)c(C)oc2c1OC`, the MIC (Vibrio vulnificus [12]) is reported as 64 µg/mL (≈ 256 µM).
With `COC(=O)[C@H](O)CS[C@H]1CC(=O)O[C@H](C)CCCCCC[C@@H]1O` the MIC (Vibrio anguillarum [13]) was 4 µg/mL.
In the case of `CC(C)/C=C1\NC(=O)[C@@H](Cc2ccccc2)n2c1nc1ccccc1c2=O`, the MIC (Vibrio harveyi [7]) is reported as 64 µg/mL.
Molecule `O=C1N[C@](O)(Cc2ccccc2)C(=O)N2CCC[C@H]12` has a zone of inhibition at 100 µg/disc (Vibrio anguillarum [1]) of 20 mm.
`C[C@@]1(O)C=C[C@H]2C[C@@H](CO)CC[C@@H]2[C@@]1(C)C(=O)CCO` gave an MIC (Vibrio anguillarum [14]) of 4 µg/mL and an MIC (Vibrio harveyi [15]) of 4 µg/mL.
`C=C(C)[C@@H]1COc2c(C)cc3oc4c(C[C@H](OC(C)=O)C(C)(C)O)ccc(O)c4c(=O)c3c2[C@@H]1O` showed an MIC (Vibrio anguillarum [16]) of 1.56 µM, an MIC (Vibrio alginolyticus [17]) of 1.56 µM and an MIC (Vibrio parahaemolyticus [2]) of 1.56 µM.
For `C[C@@]12C=C[C@@H]3C[C@H](CO)CC[C@@H]3[C@]1(C)C(=O)C=CO2`, the MIC (Vibrio anguillarum [14]) was 4 µg/mL and the MIC (Vibrio harveyi [15]) was 4 µg/mL.
`C[C@H](O)[C@H](Cl)C1=C[C@H](O)[C@@H](C)OC1=O` [CHLOROHYDROASPYRONE A] was tested, and the MIC (Vibrio harveyi [4]) was 32 µg/mL (≈ 145 µM) and the MIC (Vibrio anguillarum [5]) was 0.5 µg/mL (≈ 2.27 µM).
In the case of `COC(=O)C[C@H](O)COC(=O)/C=C/CCl`, the IC50 (Vibrio harveyi [9]) is reported as 14.6 µM.
With `O=C1N[C@H](Cc2ccccc2)C(=O)N2C[C@@H](O)C[C@@H]12` the “inhibition zone (IZ)” value (Vibrio parahaemolyticus [10]) was 12 mm and the “inhibition zone (IZ)” value (Vibrio alginolyticus [11]) was 20 mm.
With `CC[C@H](C)[C@@H]1NC(=O)[C@@H](Cc2ccccc2)n2c1nc1c(c2=O)C=CC=CO1` the MIC (Vibrio harveyi [7]) was 64 µg/mL.
`C[C@H](O)/C=C1/C(=O)O[C@H]([C@@H](C)O)[C@@H]1O` showed an MIC (Vibrio harveyi [4]) of 32 µg/mL (≈ 158 µM) and an MIC (Vibrio anguillarum [5]) of 0.5 µg/mL (≈ 2.47 µM).
`CCOC(=O)Cc1cc(O)cc(O)c1C(=O)CC` was tested, and the MIC (Vibrio vulnificus [18]) was 15.6 µg/mL (≈ 61.8 µM).
In the case of `C/C(=C\[C@H]1OC(=O)[C@@H](C)[C@@H]1C)[C@H]1CCC2=C3C=CC4=CC(=O)CC[C@]4(C)[C@H]3CC[C@@]21C`, the MIC (Vibrio anguillarum [16]) is reported as 25 µg/mL, the MIC (Vibrio alginolyticus [17]) is reported as 25 µg/mL and the MIC (Vibrio parahaemolyticus [2]) is reported as 25 µg/mL.
`O=C1c2cccc(O)c2C(=O)c2c1cc(O)c(C(CO)CCO)c2O` (stereo not given) showed an MIC (Vibrio parahaemolyticus [8]) of 24 µg/mL.
In the case of `C=C(C)[C@H]1COc2c(C)cc3oc4c(C[C@H](OC(C)=O)C(C)(C)O)ccc(O)c4c(=O)c3c2[C@@H]1O`, the MIC (Vibrio anguillarum [16]) is reported as 1.56 µM, the MIC (Vibrio alginolyticus [17]) is reported as 1.56 µM and the MIC (Vibrio parahaemolyticus [2]) is reported as 1.56 µM.
